Source: paper PMC11171921, “NinaB and BCO Collaboratively Participate in the β-Carotene Catabolism in Crustaceans: A Case Study on Chinese Mitten Crab Eriocheir sinensis” (International Journal of Molecular Sciences, 2024)

Biological target: T1, EsNinaBl (Eriocheir sinensis, UniProt Z9UJ24V2T0)
T1 construct: full ORF in pGEX-4T (GST fusion vector), expressed in beta-carotene-producing E. coli BL(DE3) with pAC-BETAipi; primer-encoded N-terminus MSTDEGG, C-terminus FIPAEAQ
T1 sequence (Z9UJ24V2T0 1-523): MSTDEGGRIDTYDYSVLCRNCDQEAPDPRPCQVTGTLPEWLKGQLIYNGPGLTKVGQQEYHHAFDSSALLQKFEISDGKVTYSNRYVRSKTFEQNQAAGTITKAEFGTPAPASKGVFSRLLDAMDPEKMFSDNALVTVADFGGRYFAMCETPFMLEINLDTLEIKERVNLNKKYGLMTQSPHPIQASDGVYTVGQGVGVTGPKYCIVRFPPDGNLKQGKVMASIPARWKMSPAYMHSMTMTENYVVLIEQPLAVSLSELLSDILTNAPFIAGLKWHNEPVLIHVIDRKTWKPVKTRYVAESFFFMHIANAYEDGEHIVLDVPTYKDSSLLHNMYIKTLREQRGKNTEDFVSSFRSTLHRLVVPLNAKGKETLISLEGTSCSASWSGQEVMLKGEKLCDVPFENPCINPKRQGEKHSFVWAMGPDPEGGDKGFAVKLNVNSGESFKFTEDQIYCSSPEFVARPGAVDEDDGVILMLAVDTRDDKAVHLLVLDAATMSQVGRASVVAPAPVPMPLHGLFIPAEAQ
Assay: beta-carotene degradation and decolorization in beta-carotene-accumulating E. coli
Type: cell-based
Details: co-expression with pAC-BETAipi; […] IPTG induction; GST-fusion vector; products not identified

CC1=C(/C=C/C(C)=C/C=C/C(C)=C/C=C/C=C(C)/C=C/C=C(C)/C=C/C2=C(C)CCCC2(C)C)C(C)(C)CCC1 [β-carotene]
beta-carotene degradation and decolorization in beta-carotene-accumulating E. co: evident decolorization was observed in the β-carotene-accumulated bacteria expressing EsNinaBl
